{"source": "paper PMC9239997", "about": "“Structural basis for mitoguardin-2 mediated lipid transport at ER-mitochondrial membrane contact sites” (Nature Communications, 2022)", "molecules": {"B1": {"name": "phosphorylated FFAT motif peptide of mouse MIGA2 (residues 289-298) (peptide)", "peptide": "Ac-SED[pS]FF[pS]ATE-NH2", "SMILES": "CC(=O)N[C@@H](CO)C(=O)N[C@@H](CCC(=O)O)C(=O)N[C@@H](CC(=O)O)C(=O)N[C@@H](COP(=O)(O)O)C(=O)N[C@@H](Cc1ccccc1)C(=O)N[C@@H](Cc1ccccc1)C(=O)N[C@@H](COP(=O)(O)O)C(=O)N[C@@H](C)C(=O)N[C@H](C(=O)N[C@@H](CCC(=O)O)C(N)=O)[C@@H](C)O", "notes": "also called mMIGA2^pFFAT; phosphorylated FFAT peptide; source: synthetic peptide, purified by HPLC"}}, "key": {"zMiga2-GST": {"target": "T1, zMiga2-GST (Danio rerio, UniProt Q5BLE2)", "T1 construct": "gene miga2; LD targeting domain, residues 310-568, C-terminal GST fusion kept; E. coli", "T1 sequence (Q5BLE2 310-568)": "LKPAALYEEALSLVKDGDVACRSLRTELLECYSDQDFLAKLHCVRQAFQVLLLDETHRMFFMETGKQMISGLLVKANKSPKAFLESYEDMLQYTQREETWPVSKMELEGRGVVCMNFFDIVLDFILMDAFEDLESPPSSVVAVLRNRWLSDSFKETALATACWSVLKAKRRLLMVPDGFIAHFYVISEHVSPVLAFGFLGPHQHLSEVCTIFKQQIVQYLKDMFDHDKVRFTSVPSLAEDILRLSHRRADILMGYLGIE", "experiment": "preloading, glutathione bead wash, Clear Native-PAGE fluorescence", "assay_type": "binding", "conditions": "labelled compound; probe of the displacement assay"}, "zMiga2 [1]": {"target": "T2, zMiga2 (Danio rerio, UniProt Q5BLE2)", "T2 construct": "gene miga2; LD targeting domain, residues 310-568; E. coli BL21(DE3); His6 tag cleaved by TEV", "T2 sequence (Q5BLE2 310-568)": "T1 sequence (Q5BLE2 310-568)", "experiment": "Clear Native-PAGE, NBD fluorescence", "assay_type": "binding", "conditions": "labelled compound; pH 7.5, on ice, 2 h; hydrophobic cavity"}, "zMiga2 [2]": {"target": "T3, zMiga2 (Danio rerio, UniProt Q5BLE2, V430W/F488W)", "T3 construct": "gene miga2; LD targeting domain, residues 310-568; E. coli BL21(DE3); His6 tag cleaved by TEV", "T3 sequence (Q5BLE2 310-568 V430W/F488W)": "T1 sequence (Q5BLE2 310-568) with V121W, F179W", "experiment": "Clear Native-PAGE, NBD fluorescence", "assay_type": "binding", "conditions": "labelled compound; pH 7.5, on ice, 2 h"}, "mMIGA1^313–573": {"target": "T4, mMIGA1^313–573 (Mus musculus, UniProt Q4QQM5)", "T4 construct": "gene Miga1; LD targeting domain, residues 313-573; E. coli; His6 tag cleaved by TEV", "T4 sequence (Q4QQM5 313-573)": "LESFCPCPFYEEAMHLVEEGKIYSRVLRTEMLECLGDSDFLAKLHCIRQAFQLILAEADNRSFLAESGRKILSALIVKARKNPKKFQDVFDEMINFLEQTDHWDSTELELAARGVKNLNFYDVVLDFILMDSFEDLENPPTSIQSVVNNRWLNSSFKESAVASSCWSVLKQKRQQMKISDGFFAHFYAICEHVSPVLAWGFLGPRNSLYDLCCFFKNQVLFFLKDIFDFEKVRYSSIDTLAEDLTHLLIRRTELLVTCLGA", "experiment": "Clear Native-PAGE, NBD fluorescence", "assay_type": "binding", "conditions": "labelled compound; pH 7.5, on ice, 2 h"}, "zMiga2 [3]": {"target": "T5, zMiga2 (Danio rerio, UniProt Q5BLE2, V430W)", "T5 construct": "gene miga2; LD targeting domain, residues 310-568; E. coli BL21(DE3); His6 tag cleaved by TEV", "T5 sequence (Q5BLE2 310-568 V430W)": "T1 sequence (Q5BLE2 310-568) with V121W", "experiment": "Clear Native-PAGE, NBD fluorescence", "assay_type": "binding", "conditions": "labelled compound; pH 7.5, on ice, 2 h"}, "zMiga2 [4]": {"target": "T6, zMiga2 (Danio rerio, UniProt Q5BLE2, F488W)", "T6 construct": "gene miga2; LD targeting domain, residues 310-568; E. coli BL21(DE3); His6 tag cleaved by TEV", "T6 sequence (Q5BLE2 310-568 F488W)": "T1 sequence (Q5BLE2 310-568) with F179W", "experiment": "Clear Native-PAGE, NBD fluorescence", "assay_type": "binding", "conditions": "labelled compound; pH 7.5, on ice, 2 h"}, "zMiga2 [5]": {"target": "T7, zMiga2 (Danio rerio, UniProt Q5BLE2, W409A)", "T7 construct": "gene miga2; LD targeting domain, residues 310-568; E. coli BL21(DE3); His6 tag cleaved by TEV", "T7 sequence (Q5BLE2 310-568 W409A)": "T1 sequence (Q5BLE2 310-568) with W100A", "experiment": "Clear Native-PAGE, NBD fluorescence", "assay_type": "binding", "conditions": "labelled compound; pH 7.5, on ice, 2 h"}, "[6]": {"target": "T8, MSP domain of mouse VAPB (residues 1-125) (mouse (Mus musculus), UniProt Q9QY76 1-125)", "T8 construct": "vesicle-associated membrane protein-associated protein B/C (VAPB), mouse, MSP domain, residues 1-125; In the liposome clustering (DLS) and tethered lipid transfer assays a His-tagged form (His-mVAPB) was used; also called mVAPB; wild-type mVAPB", "T8 sequence (Q9QY76 1-125)": "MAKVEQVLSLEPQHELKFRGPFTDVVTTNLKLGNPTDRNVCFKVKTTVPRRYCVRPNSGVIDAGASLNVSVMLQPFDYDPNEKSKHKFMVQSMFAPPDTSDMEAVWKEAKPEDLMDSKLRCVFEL", "experiment": "ITC; Microcal ITC200, 25 °C, buffer C (25 mM Tris-HCl pH 7.5, 150 mM NaCl, 4 mM β-mercaptoethanol); 20 injections of 2 μl; 1:1 binding model", "conditions": "both partners purified"}, "[7]": {"target": "T9, MSP domain of mouse VAPB (residues 1-125), K43L/K45L (mouse (Mus musculus), UniProt Q9QY76 1-125, K43L | K45L)", "T9 construct": "vesicle-associated membrane protein-associated protein B/C (VAPB), mouse, MSP domain, residues 1-125, K43L/K45L; also called mVAPB K43L/K45L", "T9 sequence (Q9QY76 1-125 K43L/K45L)": "as the sequence (Q9QY76 1-125) above, with K43L, K45L counted along it", "experiment": "ITC; Microcal ITC200, 25 °C, buffer C (25 mM Tris-HCl pH 7.5, 150 mM NaCl, 4 mM β-mercaptoethanol); 20 injections of 2 μl; 1:1 binding model", "conditions": "both partners purified"}, "[8]": {"target": "T10, MSP domain of mouse VAPB (residues 1-125), K87L/K118L (mouse (Mus musculus), UniProt Q9QY76 1-125, K87L | K118L)", "T10 construct": "vesicle-associated membrane protein-associated protein B/C (VAPB), mouse, MSP domain, residues 1-125, K87L/K118L; also called mVAPB K87L/K118L", "T10 sequence (Q9QY76 1-125 K87L/K118L)": "as the sequence (Q9QY76 1-125) above, with K87L, K118L counted along it", "experiment": "ITC; Microcal ITC200, 25 °C, buffer C (25 mM Tris-HCl pH 7.5, 150 mM NaCl, 4 mM β-mercaptoethanol); 20 injections of 2 μl; 1:1 binding model", "conditions": "both partners purified"}}, "note": "Changes are numbered by the printed parent chain. [ ]: non-standard residue; d: D form. pS = N[C@@H](COP(=O)(O)O)C(=O)O"}
{"molecule": "CCCCCCCCCCCCCCCC(=O)OC[C@H](COP(=O)([O-])OCC[N+](C)(C)C)OC(=O)CCCCCCCCCCCNc1ccc([N+](=O)[O-])c2nonc12", "note": "[NBD-PC, 1-palmitoyl-2-{12-[(7-nitro-2-1,3-benzoxadiazol-4-yl)amino]dodecanoyl}-sn-glycero-3-phosphocholine]", "values": [{"measurement": "preloading, glutathione bead wash, Clear Native-PAGE fluorescence", "setting": "zMiga2-GST", "result": "The NBD-PC bound zMiga2 was incubated with natural lipids across a range of concentrations"}]}
{"molecule": "CCCCCCCC/C=C\\CCCCCCCC(=O)OC[C@H](COP(=O)(O)OCCNc1ccc([N+](=O)[O-])c2nonc12)OC(=O)CCCCCCC/C=C\\CCCCCCCC", "note": "[NBD-PE, 1,2-dioleoyl-sn-glycero-3-phosphoethanolamine-N-(7-nitro-2-1,3-benzoxadiazol-4-yl)]", "values": [{"measurement": "Clear Native-PAGE, NBD fluorescence", "setting": "zMiga2 [1]", "result": "explored the ability of the mutant proteins to interact with NBD-PE"}, {"measurement": "lipid binding relative to WT", "setting": "zMiga2 [2]", "result": "double mutant showed decreased lipid-binding that was less than half of that of the wild type"}, {"measurement": "Clear Native-PAGE, NBD fluorescence", "setting": "mMIGA1^313–573", "result": "NBD-PE binding by MIGA1 was markedly lower than that by MIGA2"}, {"measurement": "lipid binding relative to WT", "setting": "zMiga2 [3]", "result": "the V430W or F488W single mutant showed a slight decrease in NBD-PE binding"}, {"measurement": "lipid binding relative to WT", "setting": "zMiga2 [4]", "result": "the V430W or F488W single mutant showed a slight decrease in NBD-PE binding"}, {"measurement": "NBD-PE binding relative to WT", "setting": "zMiga2 [5]", "result": "~ 2 fold"}]}
{"molecule": "B1", "values": [{"measurement": "Kd", "setting": "[6]", "result": "1700 ± 200", "unit": "nM"}, {"measurement": "fold lower binding affinity than wild type mVAPB", "setting": "[7]", "result": 5, "unit": "fold"}, {"measurement": "fold lower binding affinity than wild type mVAPB", "setting": "[8]", "result": 3, "unit": "fold"}]}
